Data as given in patent publication US20210113568A1, “PREVENTIVE AND/OR THERAPEUTIC AGENT FOR AUTOIMMUNE DISEASE COMPRISING COMPOUND HAVING Btk INHIBITORY ACTIVITY AS ACTIVE INGREDIENT” (ONO PHARMACEUTICAL CO., LTD., priority 2018, published 2021).

Tested on: human neutrophils
Test: Measurement of activation of human neutrophils (NETs formation, SYTOX Green fluorescence, immune complex stimulation)
Assay type: cell-based
Conditions: Neutrophil, immobilized HSA/anti-HSA immune complex, 1 hour preincubation, 4 hours at 37° C.
Method: Human serum albumin (HSA) (Sigma) was immobilized on a 96-well plate and anti-HSA antibody (Sigma) was added to form an immune complex. Blocking was performed with 10% fetal bovine serum (FBS), and the plate was then used for neutrophil activation.
Various compounds having a Btk inhibitory activity were used as the test compounds. The test compound was dissolved in DMSO and dilution with RPMI 1640 culture medium (10% FBS, contained 1% penicillin/streptomycin) was then performed to prepare a test compound solution with a concentration 11-times that of the final concentration. 180 μL of a culture medium-diluted human neutrophil suspension was added to 20 μL of the 11×-concentration test compound solution, or the medium (1.1% DMSO), and incubation was performed for 1 hour at room temperature.
20 μL of a 50 μM SYTOX Green solution (Thermo Fisher Scientific Inc.) was then added to the plate bearing the immobilized immune complex; 180 μL (1×10^5 cells/well) of the test compound-treated neutrophil suspension was added; and incubation was carried out for 4 hours at 37° C. and 5% CO2. The relative fluorescence units of the SYTOX Green bound to NETs from the neutrophils were measured using a microplate reader (Molecular Devices) and conditions of an excitation wavelength of 475 nm and a fluorescence wavelength of 523 nm. The percent inhibition (%) for the test compound was calculated using the formula given below. The percent inhibition (%) was graphically plotted using Prism (ver. 5.04, GraphPad Software) and the IC50 value was determined.
A: relative fluorescence units when the test compound was added B: relative fluorescence units at the time of stimulation C: relative fluorescence units without stimulation

SMILES | IC50 [µM] | IC50 (unit given as M) [µM]
Cc1c(-c2c(F)cc(C(N)=O)c3[nH]c4c(c23)CC[C@H](C(C)(C)O)C4)cccc1-n1c(=O)c2cccc(F)c2n(C)c1=O [BMS-986142] | 0.044 | 
CC#CC(=O)N1CCC[C@H]1c1nc(-c2ccc(C(=O)Nc3ccccn3)cc2)c2c(N)nccn12 [acalabrutinib] | 0.084 | 
C=CC(=O)N1CCC(CNc2ncnc(N)c2-c2ccc(Oc3ccccc3)cc2)CC1 [evobrutinib] |  | 0.057
C[C@H]1CN(C2COC2)CCN1c1ccc(Nc2cc(-c3ccnc(N4CCn5c(cc6c5CC(C)(C)C6)C4=O)c3CO)cn(C)c2=O)nc1 [fenebrutinib] | 0.062 | 
C=CC(=O)N1CCC[C@@H](n2nc(-c3ccc(Oc4ccccc4)cc3)c3c(N)ncnc32)C1 [ibrutinib] | 0.0036 | 
CC#CC(=O)N1CC[C@@H](n2c(=O)n(-c3ccc(Oc4ccccc4)cc3)c3c(N)ncnc32)C1 [tirabrutinib, 6-amino-9-[(3R)-1-(buta-2-ynoyl)pyrrolidin-3-yl]-7-(4-phenoxyphenyl)-7,9-dihydro-8H-purin-8-one] | 0.022 | 
